Source: US8703765B2, “Cyclic inhibitors of 11β-hydroxysteroid dehydrogenase 1” (Boehringer Ingelheim International GmbH, priority 2009, dated 2014)
pIC50: −log10 of the molar value.

biological target: T1, 11β-HSD1 (Homo sapiens, UniProt P28845); test: In vitro inhibition of 11β-HSD1, HTRF detection of cortisol generated by human liver microsomes; type: biochemical; details: cortisone 80 nM, NADPH 200 μM, 1 hour at 37° C., pH 6.0
T1 construct: detecting cortisol generated from cortisterone by human liver microsomes; from tissue; host or cells: human liver microsomes
Protocol: In vitro inhibition of 11 β-HSD1 by test compounds was determined with HTRF (Homogeneous Time-Resolved Fluorescence) technology (cisbio international, France) detecting cortisol generated from cortisterone by human liver microsomes. Briefly, compounds were incubated for 1 hour at 37° C. in Tris buffer (20 mM tris, 5 mM EDTA, pH 6.0) containing NADPH (200 μM) and cortisone (80 nM). Cortisol generated in the reaction was then detected with a competitive immunoassay, involving two HTRF conjugates: cortisol linked to XL665 and anti-cortisol antibody labeled with Europium cryptate. The incubation period for detection reaction was typically 2 hours. The amount of cortisol was determined by reading the time-resolved fluorescence of the wells (Ex 320/75 nm; Em 615/8.5 nm and 665/7.5 nm). The ratio of the two emission signals is then calculated (Em665*10000/Em615). […] Each assay also contained a calibration curve with cortisol to transform the fluorescent data into cortisol concentrations. Percent inhibition of each compound was determined relative to the carbenoxolone signal and IC50 curves were generated.
In Table 1 the 11β-HSD 1 inhibitory activities, determined as described above, are compiled.

T1 sequence (P28845 whole entry): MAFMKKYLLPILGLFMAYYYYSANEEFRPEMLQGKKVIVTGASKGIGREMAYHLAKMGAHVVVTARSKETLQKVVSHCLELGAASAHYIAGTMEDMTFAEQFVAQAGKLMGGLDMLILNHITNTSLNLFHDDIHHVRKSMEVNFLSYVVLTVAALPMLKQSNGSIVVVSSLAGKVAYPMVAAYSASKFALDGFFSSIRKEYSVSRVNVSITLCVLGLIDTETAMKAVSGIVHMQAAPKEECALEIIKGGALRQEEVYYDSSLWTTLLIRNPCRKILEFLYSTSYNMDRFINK

SMILES	pIC50
CC(C)(O)C[C@]1(c2ccccc2)CCN([C@H](c2ccc(-c3ccn(C4CC4)c(=O)c3)cc2)C2CC2)C(=O)O1 [Example 9, 3-{(S)-Cyclopropyl-[4-(1-cyclopropyl-2-oxo-1,2-dihydro-pyridin-4-yl)-phenyl]-methyl}-(S)-6-(2-hydroxy-2-methyl-propyl)-6-phenyl-[1,3]oxazinan-2-one]	7.42
CC(C)(O)C[C@]1(c2ccccc2)CCN([C@H](c2ccc(Br)cc2)C2CC2)C(=O)O1 [Example 6, 3-[(S)-(4-Bromo-phenyl)-cyclopropyl-methyl]-(S)-6-(2-hydroxy-2-methyl-propyl)-6-phenyl-[1,3]oxazinan-2-one]	7.28
CC(C)(O)CC1(c2ccccc2)CCN(C(c2ccc(Br)cc2)C2CC2)C(=O)O1 (stereo not drawn) [Example 1, 3-[(4-Bromo-phenyl)-cyclopropyl-methyl]-6-(2-hydroxy-2-methyl-propyl)-6-phenyl-[1,3]oxazinan-2-one]	7.19
Cc1ncc(-c2ccc([C@H](C3CC3)N3CC[C@](CC(C)(C)O)(c4ccccc4)OC3=O)cc2)cn1 [Example 11, 3-{(S)-Cyclopropyl-[4-(2-methyl-pyrimidin-5-yl)-phenyl]methyl}-(S)-6-(2-hydroxy-2-methyl-propyl)-6-phenyl-[1,3]oxazinan-2-one]	7.27
CC(C)(O)C[C@@]1(c2ccccc2)CCN([C@H](c2ccc(Br)cc2)C2CC2)C(=O)O1 (racemic) [Example 2, 3-[(4-Bromo-phenyl)-cyclopropyl-methyl]-6-(2-hydroxy-2-methyl-propyl)-6-phenyl-[1,3]oxazinan-2-one]	6.02
Cc1ccc(-c2ccc([C@H](C3CC3)N3CC[C@](CC(C)(C)O)(c4ccccc4)OC3=O)cc2)nn1 [Example 8, 3-{(S)-Cyclopropyl-[4-(6-methyl-pyridazin-3-yl)-phenyl]methyl}-(S)-6-(2-hydroxy-2-methyl-propyl)-6-phenyl-[1,3]oxazinan-2-one]	7.54

Second part, the compound after the results:

pIC50	SMILES
7.15	Cn1cc(-c2ccc([C@H](C3CC3)N3CC[C@](CC(C)(C)O)(c4ccccc4)OC3=O)cc2)ccc1=O [Example 10, 3-{(S)-Cyclopropyl-[4-(1-methyl-6-oxo-1,6-dihydro-pyridin-3-yl)-phenyl]-methyl}-(S)-6-(2-hydroxy-2-methyl-propyl)-6-phenyl-[1,3]oxazinan-2-one]
< 5.00	Cn1ccc(-c2ccc([C@H](C3CC3)N3CC[C@@](CC(C)(C)O)(c4ccccc4)OC3=O)cc2)cc1=O (racemic) [Example 4, 3-{Cyclopropyl-[4-(1-methyl-2-oxo-1,2-dihydro-pyridin-4-yl)-phenyl]-methyl}-6-(2-hydroxy-2-methyl-propyl)-6-phenyl-[1,3]oxazinan-2-one]
< 5.35	Cn1ccc(-c2ccc([C@@H](C3CC3)N3CC[C@@](CC(C)(C)O)(c4ccccc4)OC3=O)cc2)cc1=O [Example 3b, 3-{(R)-cyclopropyl-[4-(1-methyl-2-oxo-1,2-dihydro-pyridin-4-yl)-phenyl]methyl}-(R)-6-(2-hydroxy-2-methyl-propyl)-6-phenyl-[1,3]oxazinan-2-one]
7.46	Cn1cc(-c2ccc(C(C3CC3)N3CCC(CC(C)(C)O)(c4ccccc4)OC3=O)cc2)ccc1=O (stereo not drawn) [Example 5, 3-{Cyclopropyl-[4-(1-methyl-6-oxo-1,6-dihydro-pyridin-3-yl)-phenyl]-methyl}-6-(2-hydroxy-2-methyl-propyl)-6-phenyl-[1,3]oxazinan-2-one]
7.19	Cn1ccc(-c2ccc([C@H](C3CC3)N3CC[C@](CC(C)(C)O)(c4ccccc4)OC3=O)cc2)cc1=O [Example 7, 3-{(S)-Cyclopropyl-[4-(1-methyl-2-oxo-1,2-dihydro-pyridin-4-yl)-phenyl]-methyl}-(S)-6-(2-hydroxy-2-methyl-propyl)-6-phenyl-[1,3]oxazinan-2-one]
6.95	Cn1ccc(-c2ccc(C(C3CC3)N3CCC(CC(C)(C)O)(c4ccccc4)OC3=O)cc2)cc1=O (stereo not drawn) [Example 3, 3-{Cyclopropyl-[4-(1-methyl-2-oxo-1,2-dihydro-pyridin-4-yl)-phenyl]-methyl}-6-(2-hydroxy-2-methyl-propyl)-6-phenyl-[1,3]oxazinan-2-one]
